Measured values: US7662997B2, “Synthesis and applications of 2-oxo-4-methylthiobutyric acid, its salts and its derivatives” (Adisseo Ireland Limited, priority 2004, dated 2010)
Where two headings read alike, the source gives them in different places.

Settings: chicken; for Cl D7-D21 Delta (%) / Consumption D7-D21 Delta (%) / Weight gain D7-D21 Delta (%): relative to control R1
Description: The starting product is a food base that is deficient in methionine, methionine being the nutritional element for which it is desired to observe a response, and the said nutritional element that is lacking is then introduced in the reference forms and in the test form, and then the performance levels obtained in each of the systems are compared, system R1 corresponding to no introduction of methionine.
Two chickens per cage are tested, with controlled randomization by chance.
Seven treatments were carried out:
R1: without added methionine,
R2 and R3: +Rhodimet™ NP99 (D,L-methionine powder sold by the applicant) at two different doses,
R4 and R5: +Rhodimet™ AT88, at two different doses
R6 and R7: +KMB, at two different doses.
They were each repeated 14 times and are represented in Table 3 below.
Zootechnical performance levels as a function of treatments (period 7-21 days)
The smaller the number of grams required to obtain one gram of weight gain, the greater the efficiency of the product, as illustrated in the FIGURE.
The ratio of KMB efficiency to DL-methionine efficiency is then calculated by calculating the ratio of the conversion efficiency values calculated at the two doses used.

[1] = addition of 0.1% of methionine, 7-21 days, versus control
[2] = higher dose (NP99 0.200%, AT88 0.225%, KMB 0.204%)
[3] = higher dose (R3 NP99 0.200%, R5 AT88 0.225%, R7 KMB 0.204%)
[4] = lower dose (NP99 0.100%, AT88 0.113%, KMB 0.102%)
[5] = lower dose (R2 NP99 0.100%, R4 AT88 0.113%, R6 KMB 0.102%)

SMILES: CSCCC(N)C(=O)O (racemic) [Rhodimet™ NP99, D,L-methionine]
- decrease of the consumption index [1]: −11%
- increase of the weight gain [1]: 90 g
- Cl D7-D21 Delta (%) [2]: −9.2%
- Consumption D7-D21 Delta (%) [2]: 5.5%
- Weight gain D7-D21 Delta (%) [2]: 16.2%
- Consumption D7-D21 (g) Means [3]: 823 g
- Mortality D7-D21 [3]: 0.0%
- Weight gain D7-D21 (g) Means [3]: 527 b g
- Cl D7-D21 Delta (%) [4]: −11.1%
- Consumption D7-D21 Delta (%) [4]: 6.7%
- Weight gain D7-D21 Delta (%) [4]: 19.8%
- Consumption D7-D21 (g) Means [5]: 832 g
- Mortality D7-D21 [5]: 0.0%
- Weight gain D7-D21 (g) Means [5]: 544 b g
